Experimental data: US11266686B2, “Metal complexes and methods of treatment” (PROCYPRA THERAPEUTICS LLC, priority 2013, dated 2022)

Experiment: Pharmacokinetics in mice after oral administration, plasma and brain by LC/MS/MS
Details: 30 mg/kg CuXTSM API oral; for Brain AUC0-24h / Brain AUC0-inf / Brain Cmax / Brain Tmax / Brain t½ (number of time points): mouse brain; for Brain t½ (number of time points) / Plasma t½ (number of time points): bracket = number of time points; for Plasma Ke / Plasma MRT / Plasma AUC0-24h / Plasma AUC0-inf / Plasma Cmax / Plasma Tmax / Plasma t½ (number of time points): mouse plasma; for Plasma AUC0-24h / Plasma AUC0-inf / Plasma Cmax / Plasma Tmax: CuATSM in SSV, NCDs in water
Protocol: CuATSM was suspended in “Standard Suspension Vehicle” (SSV), consisting of 0.9% (w/v) NaCl, 0.5% (w/v) sodium carboxymethylcellulose, 0.5% (v/v) benzyl alcohol, and 0.4% (v/v) Tween 80 in deionized water. All other test compounds were suspended in sterile water. Samples were prepared by adding one of the compounds to the liquid vehicle (water or SSV) in a vial and then vortexing the mixture for 3 min with a stir bar inside. If the powdered sample was not completely wetted or not completely suspended, the sample was vortexed for another minute. If wetting was still incomplete, the vial was sonicated until a fully wetted suspension was obtained. Between doses, the sample was stirred on medium speed and then vortexed for an additional 20 s immediately before the next dose was removed from the vial. All dosing was completed from a single preparation of the suspension within 60 min of adding the compound to water or SSV.
Mice were deprived of pelleted food overnight, during which time 10% dextrose, as Dextroput, was provided in tap water, after which the test items were administrated orally by gavage in water or SSV. […] The blood samples were kept on ice after sampling and centrifuged at +4° C., 1800×g for 5 min to prepare plasma. Plasma samples were extracted and transferred into pre-labelled Eppendorf test tubes (50 μl exact in one vial, and the remaining in a second vial) and frozen at −20° C. The samples were transported on dry ice to the analysis site. Following blood sampling, mice were euthanized by cervical dislocation, and then brains were collected through opened skulls. The brains were weighed and placed in test tubes and placed on water ice. Phosphate-buffered saline (PBS, pH 7.4), 4 ml per 1 g of brain tissue, was added to the test tube and brains were homogenized by using Ultra-Turrax T25 homogenizer/S25N-10G (Setting 2, 9500 rpm, approximately 10 s). The homogenate was frozen at −20° C. immediately after homogenization. The samples were transported on dry ice to the analysis site.
Dosed mice were studied in triplicate for each of the seven time points, totaling 21 mice dosed for each studied compound. Plasma samples and brain homogenates from four untreated animals were also obtained. The plasma samples were thawed at room temperature (RT), mixed with 2-fold volume of acetonitrile, shaken and centrifuged for 10 min at 13 000×g (Heraeus Pico 17 centrifuge), after which supernatants were transferred into glass vials. The brain homogenate samples were mixed with 2-fold volume of acetonitrile:methanol, shaken, ultrasonicated for 20 min, and centrifuged for 10 min at 13 000×g (Heraeus Pico 17 centrifuge), after which supernatants were transferred into glass vials. […] Quality control (QC) samples were prepared for concentrations 10, 100 and 1000 ng/ml in plasma or brain homogenates.
Elution was with gradient of 0.5% formic acid/acetonitrile (99:1) increased step-wise to (5:95).
The pharmacokinetic parameters for study compounds in plasma and brain were calculated using standard non-compartmental methods. The elimination phase half-life (t½) was calculated by least-squares regression analysis of the terminal linear part of the log concentration-time curve. […] The maximum concentration (Cmax) and the time to Cmax (Tmax) were derived directly from the concentration data. Mean Residence Time, MRT, and elimination rate constant, Ke, were also calculated from the concentration vs. time data of plasma samples.

Brain:plasma-ratio (Cmax-based) (mouse)	SMILES	Brain AUC0-24h	Brain AUC0-inf	Brain Cmax	Brain Tmax	Brain t½ (number of time points)	Plasma Ke	Plasma MRT	Plasma AUC0-24h	Plasma AUC0-inf	Plasma Cmax	Plasma Tmax	Plasma t½ (number of time points)
2.1	CNC1=NN=CC(C)=NN=C(NC)[S][Cu][S]1.O=C1NS(=O)(=O)c2ccccc21.O=C1NS(=O)(=O)c2ccccc21 [CuPTSM:saccharin (1:2)]	62832 ng·min/g	72025 ng·min/g	189 ng/g	0.5 h	487 (2) min	0.0016 min⁻¹	7.9 h	60004 ng·min/mL	68278 ng·min/mL	0.0915 µg/mL	1 h	439 (2) min
	CNC1=NN=C(C)C(C)=NN=C(NC)[S][Cu][S]1.O=C(O)CC(O)(CC(=O)O)C(=O)O [CuATSM:citric acid (1:1)]	15435 ng·min/g	15563 ng·min/g	77.0 ng/g	1 h	218 (4) min	0.0034 min⁻¹	5.25 h	8292 ng·min/mL	8366 ng·min/mL	0.0145 µg/mL	1 h	204 (3) min
